What was measured:
Conditions in all cases: Compound concentration 10.0 uM
[1] = molecular target: Calcium/calmodulin-dependent protein kinase type 1 (Homo sapiens) (UniProt Q14012); test: Inhibition of CaMKI(h) at 10.0 µM in the Eurofins Kinase panel
[2] = molecular target: Casein kinase I isoform delta (Homo sapiens) (UniProt P48730); test: Inhibition of CK1delta(h) at 10.0 µM in the Eurofins Kinase panel
[3] = molecular target: RAF proto-oncogene serine/threonine-protein kinase (Homo sapiens) (UniProt P04049); test: Inhibition of c-RAF(h) at 10.0 µM in the Eurofins Kinase panel
[4] = molecular target: Dual specificity tyrosine-phosphorylation-regulated kinase 2 (Homo sapiens) (UniProt Q92630); test: Inhibition of DYRK2(h) at 10.0 µM in the Eurofins Kinase panel
[5] = molecular target: Fibroblast growth factor receptor 1 (Homo sapiens) (UniProt P11362); test: Inhibition of FGFR1(h) at 10.0 µM in the Eurofins Kinase panel
[6] = molecular target: Tyrosine-protein kinase Fyn (Homo sapiens) (UniProt P06241); test: Inhibition of Fyn(h) at 10.0 µM in the Eurofins Kinase panel
[7] = molecular target: Cyclin-G-associated kinase (Homo sapiens) (UniProt O14976); test: Inhibition of GAK(h) at 10.0 µM in the Eurofins Kinase panel
[8] = molecular target: G protein-coupled receptor kinase 3 (Homo sapiens) (UniProt P35626); test: Inhibition of GRK3(h) at 10.0 µM in the Eurofins Kinase panel
[9] = molecular target: Rhodopsin kinase GRK7 (Homo sapiens) (UniProt Q8WTQ7); test: Inhibition of GRK7(h) at 10.0 µM in the Eurofins Kinase panel
[10] = molecular target: Homeodomain-interacting protein kinase 1 (Homo sapiens) (UniProt Q86Z02); test: Inhibition of HIPK1(h) at 10.0 µM in the Eurofins Kinase panel
[11] = molecular target: Mitogen-activated protein kinase 8 (Homo sapiens) (UniProt P45983); test: Inhibition of JNK1alpha1(h) at 10.0 µM in the Eurofins Kinase panel
[12] = molecular target: Tyrosine-protein kinase Lck (Homo sapiens) (UniProt P06239); test: Inhibition of Lck(h) activated at 10.0 µM in the Eurofins Kinase panel
[13] = molecular target: Leucine-rich repeat serine/threonine-protein kinase 2 (Homo sapiens) (UniProt Q5S007); test: Inhibition of LRRK2(h) at 10.0 µM in the Eurofins Kinase panel
[14] = molecular target: Dual specificity mitogen-activated protein kinase kinase 3 (Homo sapiens) (UniProt P46734); test: Inhibition of MKK3(h) at 10.0 µM in the Eurofins Kinase panel
[15] = molecular target: Serine/threonine-protein kinase Nek5 (Homo sapiens) (UniProt Q6P3R8); test: Inhibition of NEK5(h) at 10.0 µM in the Eurofins Kinase panel
[16] = molecular target: Serine/threonine-protein kinase pim-1 (Homo sapiens) (UniProt P11309); test: Inhibition of Pim-1(h) at 10.0 µM in the Eurofins Kinase panel
[17] = molecular target: Protein kinase C delta type (Homo sapiens) (UniProt Q05655); test: Inhibition of PKCdelta(h) at 10.0 µM in the Eurofins Kinase panel
[18] = molecular target: Serine/threonine-protein kinase N1 (Homo sapiens) (UniProt Q16512); test: Inhibition of PRK1(h) at 10.0 µM in the Eurofins Kinase panel
[19] = molecular target: Ribosomal protein S6 kinase alpha-2 (Homo sapiens) (UniProt Q15349); test: Inhibition of Rsk3(h) at 10.0 µM in the Eurofins Kinase panel
[20] = molecular target: Serine/threonine-protein kinase TAO2 (Homo sapiens) (UniProt Q9UL54); test: Inhibition of TAO2(h) at 10.0 µM in the Eurofins Kinase panel
[21] = molecular target: Tau-tubulin kinase 2 (Homo sapiens) (UniProt Q6IQ55); test: Inhibition of TTBK2(h) at 10.0 µM in the Eurofins Kinase panel
[22] = molecular target: Phosphatidylinositol 4-phosphate 5-kinase type-1 alpha (Homo sapiens) (UniProt Q99755); test: Inhibition of PIP5K1a(h) at 10.0 µM in the Eurofins Kinase panel
[23] = molecular target: 5-hydroxytryptamine receptor 5A (Homo sapiens) (UniProt P47898)
[24] = molecular target: 5-hydroxytryptamine receptor 6 (Homo sapiens) (UniProt P50406)
[25] = molecular target: Sodium-dependent serotonin transporter (Homo sapiens) (UniProt P31645)
[26] = molecular target: Kappa-type opioid receptor (Homo sapiens, UniProt P41145)
[27] = molecular target: Adenosine receptor A2a (Homo sapiens) (UniProt P29274)
[28] = molecular target: D(2) dopamine receptor (Homo sapiens) (UniProt P14416)
[29] = molecular target: Estrogen receptor (Homo sapiens) (UniProt P03372)
[30] = molecular target: GABA-A receptor; anion channel (Rattus norvegicus) (UniProt O09028+P15431+P18506+P18508+P19969+P20236+P23574+P23576+P28471+P28473+P30191+P62813+P63079+P63138+Q91ZM7+Q9ES14)
[31] = molecular target: T1, Muscarinic acetylcholine receptor M4 (Homo sapiens) (UniProt P08173)
T1 sequence (whole entry): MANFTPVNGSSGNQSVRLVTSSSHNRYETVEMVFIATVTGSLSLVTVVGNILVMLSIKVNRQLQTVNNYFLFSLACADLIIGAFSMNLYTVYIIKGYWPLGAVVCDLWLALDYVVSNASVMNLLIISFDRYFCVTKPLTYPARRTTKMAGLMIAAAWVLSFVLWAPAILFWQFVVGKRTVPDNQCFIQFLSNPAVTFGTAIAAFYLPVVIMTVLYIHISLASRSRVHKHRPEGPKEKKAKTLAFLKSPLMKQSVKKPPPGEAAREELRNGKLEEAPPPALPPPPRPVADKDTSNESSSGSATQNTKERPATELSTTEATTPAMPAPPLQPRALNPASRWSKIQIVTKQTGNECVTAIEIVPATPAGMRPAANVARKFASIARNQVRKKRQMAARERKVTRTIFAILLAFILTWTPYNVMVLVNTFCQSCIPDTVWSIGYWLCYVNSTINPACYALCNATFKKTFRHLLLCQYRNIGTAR

[32] = molecular target: 5-hydroxytryptamine receptor 2C (Homo sapiens) (UniProt P28335)
[33] = molecular target: 3-phosphoinositide-dependent protein kinase 1 (Homo sapiens) (UniProt O15530); test: Inhibition of PDK1(h) at 10.0 µM in the Eurofins Kinase panel
Sequence of 3-phosphoinositide-dependent protein kinase 1 (Homo sapiens) (O15530 whole entry, looked up): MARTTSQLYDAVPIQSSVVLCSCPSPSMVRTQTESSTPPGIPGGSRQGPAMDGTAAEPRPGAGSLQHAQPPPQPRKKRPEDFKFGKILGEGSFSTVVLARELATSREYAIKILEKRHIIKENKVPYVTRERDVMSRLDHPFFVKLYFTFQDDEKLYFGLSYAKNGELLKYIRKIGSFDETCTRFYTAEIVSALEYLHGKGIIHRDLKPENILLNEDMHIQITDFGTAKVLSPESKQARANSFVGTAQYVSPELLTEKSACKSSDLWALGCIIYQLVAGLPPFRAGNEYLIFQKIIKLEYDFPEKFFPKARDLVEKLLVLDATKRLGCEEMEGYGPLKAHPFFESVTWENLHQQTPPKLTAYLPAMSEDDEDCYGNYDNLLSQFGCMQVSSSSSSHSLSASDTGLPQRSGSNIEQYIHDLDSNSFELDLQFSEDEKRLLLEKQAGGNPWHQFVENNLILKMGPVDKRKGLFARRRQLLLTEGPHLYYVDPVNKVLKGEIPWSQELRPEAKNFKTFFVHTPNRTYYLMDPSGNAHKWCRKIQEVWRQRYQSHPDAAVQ

Sequence of 5-hydroxytryptamine receptor 5A (Homo sapiens) (P47898 whole entry): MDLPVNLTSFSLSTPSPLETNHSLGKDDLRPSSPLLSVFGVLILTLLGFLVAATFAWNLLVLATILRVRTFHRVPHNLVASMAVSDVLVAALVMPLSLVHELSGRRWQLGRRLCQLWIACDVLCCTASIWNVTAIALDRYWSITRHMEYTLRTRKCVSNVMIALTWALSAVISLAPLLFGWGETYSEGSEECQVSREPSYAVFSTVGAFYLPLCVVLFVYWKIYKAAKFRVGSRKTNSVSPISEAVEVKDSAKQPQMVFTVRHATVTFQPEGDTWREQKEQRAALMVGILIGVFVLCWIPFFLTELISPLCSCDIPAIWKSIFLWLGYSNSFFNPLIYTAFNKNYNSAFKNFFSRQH
Sequence of Kappa-type opioid receptor (P41145 whole entry): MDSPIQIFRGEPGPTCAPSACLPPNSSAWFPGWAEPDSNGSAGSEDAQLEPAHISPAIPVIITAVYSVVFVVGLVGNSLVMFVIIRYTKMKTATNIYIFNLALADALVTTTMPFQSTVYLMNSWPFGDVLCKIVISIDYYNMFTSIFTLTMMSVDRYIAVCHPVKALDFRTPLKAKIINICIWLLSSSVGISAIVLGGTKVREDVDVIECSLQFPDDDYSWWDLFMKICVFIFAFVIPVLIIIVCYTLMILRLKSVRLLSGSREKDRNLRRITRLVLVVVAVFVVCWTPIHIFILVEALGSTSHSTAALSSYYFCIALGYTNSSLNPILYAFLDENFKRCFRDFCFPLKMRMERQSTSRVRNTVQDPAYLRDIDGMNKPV
Sequence of 5-hydroxytryptamine receptor 6 (Homo sapiens) (P50406 whole entry): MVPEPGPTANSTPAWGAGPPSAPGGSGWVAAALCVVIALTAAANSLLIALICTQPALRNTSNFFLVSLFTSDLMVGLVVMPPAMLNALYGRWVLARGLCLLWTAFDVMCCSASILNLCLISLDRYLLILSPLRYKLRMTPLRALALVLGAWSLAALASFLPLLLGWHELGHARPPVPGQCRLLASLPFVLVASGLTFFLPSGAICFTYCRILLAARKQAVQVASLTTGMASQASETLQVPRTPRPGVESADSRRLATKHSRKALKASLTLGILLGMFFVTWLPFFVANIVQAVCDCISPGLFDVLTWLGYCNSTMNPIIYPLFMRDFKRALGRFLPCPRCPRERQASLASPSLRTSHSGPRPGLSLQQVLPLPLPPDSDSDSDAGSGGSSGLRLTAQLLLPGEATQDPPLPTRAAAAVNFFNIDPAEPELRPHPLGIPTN
Sequence of Sodium-dependent serotonin transporter (Homo sapiens) (P31645 whole entry, looked up): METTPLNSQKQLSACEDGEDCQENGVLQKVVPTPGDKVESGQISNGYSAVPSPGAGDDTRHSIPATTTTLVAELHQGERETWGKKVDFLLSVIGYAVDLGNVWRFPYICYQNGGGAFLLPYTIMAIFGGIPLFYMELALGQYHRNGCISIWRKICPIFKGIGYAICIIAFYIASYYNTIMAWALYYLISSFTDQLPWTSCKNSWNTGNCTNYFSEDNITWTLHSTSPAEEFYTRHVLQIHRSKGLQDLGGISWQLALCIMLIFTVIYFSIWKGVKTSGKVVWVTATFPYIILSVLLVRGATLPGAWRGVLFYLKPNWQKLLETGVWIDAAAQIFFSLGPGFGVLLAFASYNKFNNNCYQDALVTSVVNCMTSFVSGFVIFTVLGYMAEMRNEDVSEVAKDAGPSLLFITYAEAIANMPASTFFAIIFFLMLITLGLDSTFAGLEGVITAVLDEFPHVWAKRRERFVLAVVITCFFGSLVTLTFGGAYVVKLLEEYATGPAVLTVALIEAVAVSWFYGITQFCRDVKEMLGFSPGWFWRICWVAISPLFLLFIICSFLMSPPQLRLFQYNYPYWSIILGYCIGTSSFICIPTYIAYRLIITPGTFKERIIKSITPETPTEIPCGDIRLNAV
Sequence of Cyclin-G-associated kinase (Homo sapiens) (O14976 whole entry): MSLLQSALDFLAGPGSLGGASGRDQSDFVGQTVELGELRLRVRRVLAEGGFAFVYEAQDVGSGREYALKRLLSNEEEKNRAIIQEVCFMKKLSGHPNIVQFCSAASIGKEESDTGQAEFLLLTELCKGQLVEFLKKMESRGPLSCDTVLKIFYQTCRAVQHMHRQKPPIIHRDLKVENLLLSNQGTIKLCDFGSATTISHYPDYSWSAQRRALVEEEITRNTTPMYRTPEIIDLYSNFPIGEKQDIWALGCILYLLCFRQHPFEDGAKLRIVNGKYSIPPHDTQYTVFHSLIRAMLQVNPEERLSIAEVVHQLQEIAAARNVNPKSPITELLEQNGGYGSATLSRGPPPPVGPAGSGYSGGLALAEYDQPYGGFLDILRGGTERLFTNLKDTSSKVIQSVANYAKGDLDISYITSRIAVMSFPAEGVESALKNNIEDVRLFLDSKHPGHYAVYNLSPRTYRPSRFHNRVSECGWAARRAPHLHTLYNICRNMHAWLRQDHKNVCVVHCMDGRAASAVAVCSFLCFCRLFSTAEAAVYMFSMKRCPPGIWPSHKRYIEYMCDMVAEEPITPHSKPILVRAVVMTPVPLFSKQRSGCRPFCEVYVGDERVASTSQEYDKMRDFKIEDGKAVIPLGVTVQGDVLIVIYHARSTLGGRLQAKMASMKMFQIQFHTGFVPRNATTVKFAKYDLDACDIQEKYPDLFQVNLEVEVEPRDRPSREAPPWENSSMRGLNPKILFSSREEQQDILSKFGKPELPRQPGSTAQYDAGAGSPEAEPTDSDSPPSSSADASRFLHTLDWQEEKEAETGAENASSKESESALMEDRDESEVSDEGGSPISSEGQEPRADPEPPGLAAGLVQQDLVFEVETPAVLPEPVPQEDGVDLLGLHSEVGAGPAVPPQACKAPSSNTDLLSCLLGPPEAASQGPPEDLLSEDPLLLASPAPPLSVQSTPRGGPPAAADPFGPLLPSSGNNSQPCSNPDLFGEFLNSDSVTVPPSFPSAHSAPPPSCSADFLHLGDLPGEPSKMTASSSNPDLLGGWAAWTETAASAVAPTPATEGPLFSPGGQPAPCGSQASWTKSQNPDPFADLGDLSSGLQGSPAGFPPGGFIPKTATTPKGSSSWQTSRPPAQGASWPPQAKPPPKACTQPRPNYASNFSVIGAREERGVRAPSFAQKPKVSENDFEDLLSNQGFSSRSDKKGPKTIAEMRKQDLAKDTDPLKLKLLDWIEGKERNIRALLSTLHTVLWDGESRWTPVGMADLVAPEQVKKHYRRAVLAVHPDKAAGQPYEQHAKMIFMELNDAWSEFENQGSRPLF
Sequence of Tyrosine-protein kinase Lck (Homo sapiens) (P06239 2-509 limits assumed): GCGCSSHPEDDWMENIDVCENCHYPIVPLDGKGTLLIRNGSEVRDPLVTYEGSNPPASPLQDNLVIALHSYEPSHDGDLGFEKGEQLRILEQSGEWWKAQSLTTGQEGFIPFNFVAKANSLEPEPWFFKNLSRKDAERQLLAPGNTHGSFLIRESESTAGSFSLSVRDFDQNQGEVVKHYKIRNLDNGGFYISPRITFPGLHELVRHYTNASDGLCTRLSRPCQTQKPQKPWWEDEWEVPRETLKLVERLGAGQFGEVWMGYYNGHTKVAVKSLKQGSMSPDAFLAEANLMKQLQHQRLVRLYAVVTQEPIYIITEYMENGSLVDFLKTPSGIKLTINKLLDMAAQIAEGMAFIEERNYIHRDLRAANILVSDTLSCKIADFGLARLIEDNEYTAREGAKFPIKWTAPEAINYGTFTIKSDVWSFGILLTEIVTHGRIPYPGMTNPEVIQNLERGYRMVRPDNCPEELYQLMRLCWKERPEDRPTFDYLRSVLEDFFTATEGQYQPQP
Sequence of Calcium/calmodulin-dependent protein kinase type 1 (Homo sapiens) (Q14012 whole entry, looked up, canonical isoform): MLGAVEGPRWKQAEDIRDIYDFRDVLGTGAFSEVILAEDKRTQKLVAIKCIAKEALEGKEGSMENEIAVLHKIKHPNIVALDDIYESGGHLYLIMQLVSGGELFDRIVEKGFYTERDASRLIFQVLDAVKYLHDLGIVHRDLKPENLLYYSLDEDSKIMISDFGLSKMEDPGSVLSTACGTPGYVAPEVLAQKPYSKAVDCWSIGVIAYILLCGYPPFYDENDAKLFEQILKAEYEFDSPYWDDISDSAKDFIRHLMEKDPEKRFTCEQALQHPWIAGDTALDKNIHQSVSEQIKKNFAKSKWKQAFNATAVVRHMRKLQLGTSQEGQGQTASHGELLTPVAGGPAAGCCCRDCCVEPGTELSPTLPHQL
Sequence of 5-hydroxytryptamine receptor 2C (Homo sapiens) (P28335 whole entry): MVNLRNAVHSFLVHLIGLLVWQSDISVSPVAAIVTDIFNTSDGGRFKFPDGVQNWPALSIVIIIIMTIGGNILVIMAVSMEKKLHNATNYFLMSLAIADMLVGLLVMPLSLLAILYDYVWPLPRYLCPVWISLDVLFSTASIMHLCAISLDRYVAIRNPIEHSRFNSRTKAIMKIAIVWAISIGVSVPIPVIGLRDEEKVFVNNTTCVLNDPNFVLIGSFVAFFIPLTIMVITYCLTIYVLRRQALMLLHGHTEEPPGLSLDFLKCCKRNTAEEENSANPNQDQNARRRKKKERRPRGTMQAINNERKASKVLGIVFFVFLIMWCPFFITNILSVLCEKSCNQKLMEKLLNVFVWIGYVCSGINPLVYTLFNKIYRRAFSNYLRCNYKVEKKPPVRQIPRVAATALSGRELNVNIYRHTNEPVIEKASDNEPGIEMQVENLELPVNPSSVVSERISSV

SMILES	inhibition [1] [%]	inhibition [2] [%]	inhibition [3] [%]	inhibition [4] [%]	inhibition [5] [%]	inhibition [6] [%]	inhibition [7] [%]	inhibition [8] [%]	inhibition [9] [%]	inhibition [10] [%]	inhibition [11] [%]	inhibition [12] [%]	inhibition [13] [%]	inhibition [14] [%]	inhibition [15] [%]	inhibition [16] [%]	inhibition [17] [%]	inhibition [18] [%]	inhibition [19] [%]	inhibition [20] [%]	other results
O=c1n(Cc2cncn2-c2cccc(Cl)c2)nc(-c2ccc(Cl)cc2)n1C[C@H](O)C(F)(F)F	-4.98	-5.22	-1.49	-8.9	-0.06	5.53	0.33	-3.13	-3.6	1.31	-1.22	2.09	10.3	-0.4	8.71	6.13	-4.61	-8.29	-0.87	-6.37	inhibition [21]: -2.08%; inhibition [22]: -4.61%; inhibition [23]: -4.02%; inhibition [24]: 1.09%; inhibition [25]: 14.1%; inhibition [26]: 3.83%; inhibition [27]: 1%; inhibition [28]: -3%; inhibition [29]: 4%; inhibition [30]: -1%; inhibition [31]: 0%; inhibition [32]: -1%; inhibition [33]: -8.39%
C[C@H](O)c1nc(Cn2nc(-c3ccc(Cl)cc3)n(C[C@H](O)C(F)(F)F)c2=O)nn1-c1cccc(Cl)c1 [PECAVAPTAN]	-5.17	-3.11	-1.46	-0.76	1.76	-1.76	10.4	2.8	0.06	-2.92	-3.82	-0.21	5.14	-0.58	6.17	0.99	2.12	-3.85	9.71	-4.1	inhibition [21]: -8.61%; inhibition [22]: -9.11%; inhibition [23]: 3.65%; inhibition [24]: 17.4%; inhibition [25]: 9.13%; inhibition [26]: 62.4%; inhibition [27]: 4%; inhibition [28]: 14%; inhibition [29]: 8%; inhibition [30]: -1%; inhibition [31]: 7%; inhibition [32]: 20%; inhibition [33]: -3.55%

Source: ChEMBL document CHEMBL5463729, “Data for DCP probe BAY 1753011” (2023)
